In brackets after ≈: the same amount, converted by molar mass.
These molecules were tested on Nakaseomyces glabratus (assay: Antifungal activity against Candida glabrata isolated from HSCT recipients with acute or chronic GVHD receiving posaconazole by broth microdilution method). Conditions: not given.
Type: functional
With `OC(Cn1cncn1)(Cn1cncn1)c1ccc(F)cc1F` [FLUCONAZOLE] the MIC50 was 64 µg/mL (≈ 209 µM) and the MIC90 was 64 µg/mL (≈ 209 µM).

Each molecule was assayed on Candida albicans (assay: Antifungal activity against Candida albicans isolated from HSCT recipient 301 with acute or chronic GVHD mouth receiving antifungal drug after 114 days prophylaxis by broth microdilution method). Conditions: not given.
Type: functional
Molecule `OC(Cn1cncn1)(Cn1cncn1)c1ccc(F)cc1F` [FLUCONAZOLE] has an MIC of 0.25 µg/mL (≈ 0.816 µM).

Each molecule was assayed on Saccharomyces cerevisiae (assay: Antifungal activity against Saccharomyces cerevisiae isolated from HSCT recipient 513 with acute or chronic GVHD mouth receiving antifungal drug after 112 days prophylaxis by broth microdilution method). Conditions: not given.
Type: functional
`OC(Cn1cncn1)(Cn1cncn1)c1ccc(F)cc1F` [FLUCONAZOLE] was tested, and the MIC was 32 µg/mL (≈ 104 µM).

These molecules were tested on Candida albicans (assay: Antifungal activity against Candida albicans isolated from HSCT recipient 042 with acute or chronic GVHD mouth after 112 days prophylaxis by broth microdilution method). Conditions: not given.
Type: functional
Work on `OC(Cn1cncn1)(Cn1cncn1)c1ccc(F)cc1F` [FLUCONAZOLE] yielded an MIC of under 0.125 µg/mL.

What follows are molecules tested on Candida albicans (assay: Antifungal activity against Candida albicans isolated from HSCT recipient 031 with acute or chronic GVHD mouth receiving antifungal drug after 109 days prophylaxis by broth microdilution method). Conditions: not given.
Type: functional
Molecule `OC(Cn1cncn1)(Cn1cncn1)c1ccc(F)cc1F` [FLUCONAZOLE] has an MIC of 128 µg/mL (≈ 418 µM).

The molecules below were run on Candida albicans (assay: Antifungal activity against Candida albicans isolated from HSCT recipients with acute or chronic GVHD prior to initiation of fluconazole therapy assessed as maximum MIC by broth microdilution method). Conditions: not given.
Type: functional
`OC(Cn1cncn1)(Cn1cncn1)c1ccc(F)cc1F` [FLUCONAZOLE] showed an MIC of 16 µg/mL.

These molecules were tested on Nakaseomyces glabratus (assay: Antifungal activity against 23 days cultured Candida glabrata isolated from neutropenic subject with AML or MDS stool receiving antifungal therapy for 25 days after 3 days of prophylaxis by broth microdilution method). Conditions: not given.
Type: functional
`OC(Cn1cncn1)(Cn1cncn1)c1ccc(F)cc1F` [FLUCONAZOLE] was tested, and the MIC was 4 µg/mL (≈ 13.1 µM).

The molecules below were run on Candida albicans (assay: Antifungal activity against Candida albicans isolated from neutropenic subjects with AML or MDS prior to initiation of posaconazole therapy by broth microdilution method). Conditions: not given.
Type: functional
With `OC(Cn1cncn1)(Cn1cncn1)c1ccc(F)cc1F` [FLUCONAZOLE] the MIC50 was 0.25 µg/mL (≈ 0.816 µM) and the MIC90 was 0.25 µg/mL (≈ 0.816 µM).

Each molecule was assayed on Pichia kudriavzevii (assay: Antifungal activity against Candida krusei isolated from HSCT recipients with acute or chronic GVHD receiving fluconazole by broth microdilution method). Conditions: not given.
Type: functional
In the case of `OC(Cn1cncn1)(Cn1cncn1)c1ccc(F)cc1F` [FLUCONAZOLE], the MIC50 was 64 µg/mL (≈ 209 µM) and the MIC90 was 64 µg/mL (≈ 209 µM).

Each molecule was assayed on Candida albicans (assay: Antifungal activity against Candida albicans isolated from neutropenic subjects with AML or MDS prior to initiation of fluconazole therapy by broth microdilution method). Conditions: not given.
Type: functional
`OC(Cn1cncn1)(Cn1cncn1)c1ccc(F)cc1F` [FLUCONAZOLE] gave an MIC50 of 0.125 µg/mL (≈ 0.408 µM) and an MIC90 of 0.25 µg/mL (≈ 0.816 µM).

The molecules below were run on Candida albicans (assay: Antifungal activity against Candida albicans isolated from HSCT recipients with acute or chronic GVHD prior to initiation of posaconazole therapy by broth microdilution method). Conditions: not given.
Type: functional
`OC(Cn1cncn1)(Cn1cncn1)c1ccc(F)cc1F` [FLUCONAZOLE] showed an MIC50 of 0.25 µg/mL (≈ 0.816 µM) and an MIC90 of 4 µg/mL (≈ 13.1 µM).

What follows are molecules tested on Nakaseomyces glabratus (assay: Antifungal activity against Candida glabrata isolated from HSCT recipient 491 with acute or chronic GVHD mouth receiving antifungal drug after 112 days prophylaxis by broth microdilution method). Conditions: not given.
Type: functional
Work on `OC(Cn1cncn1)(Cn1cncn1)c1ccc(F)cc1F` [FLUCONAZOLE] yielded an MIC of 32 µg/mL (≈ 104 µM).

These molecules were tested on Pichia kudriavzevii (assay: Antifungal activity against Candida krusei isolated from HSCT recipients with acute or chronic GVHD receiving fluconazole assessed as maximum MIC by broth microdilution method). Conditions: not given.
Type: functional
Molecule `OC(Cn1cncn1)(Cn1cncn1)c1ccc(F)cc1F` [FLUCONAZOLE] has an MIC of 64 µg/mL.

What follows are molecules tested on Pichia kudriavzevii (assay: Antifungal activity against 1 day cultured Candida krusei isolated from neutropenic subject with AML or MDS pharynx receiving antifungal therapy for 19 days after 6 days of prophylaxis by broth microdilution method). Conditions: not given.
Type: functional
Work on `OC(Cn1cncn1)(Cn1cncn1)c1ccc(F)cc1F` [FLUCONAZOLE] yielded an MIC of 32 µg/mL (≈ 104 µM).

These molecules were tested on Nakaseomyces glabratus (assay: Antifungal activity against Candida glabrata isolated from HSCT recipients with acute or chronic GVHD prior to initiation of posaconazole therapy by broth microdilution method). Conditions: not given.
Type: functional
`OC(Cn1cncn1)(Cn1cncn1)c1ccc(F)cc1F` [FLUCONAZOLE] was tested, and the MIC50 was 16 µg/mL (≈ 52.2 µM) and the MIC90 was 64 µg/mL (≈ 209 µM).

The molecules below were run on Candida albicans (assay: Antifungal activity against Candida albicans isolated from HSCT recipient 928 with acute or chronic GVHD mouth receiving antifungal drug after 112 days prophylaxis by broth microdilution method). Conditions: not given.
Type: functional
Work on `OC(Cn1cncn1)(Cn1cncn1)c1ccc(F)cc1F` [FLUCONAZOLE] yielded an MIC of 128 µg/mL (≈ 418 µM).

Each molecule was assayed on Nakaseomyces glabratus (assay: Antifungal activity against Candida glabrata isolated from neutropenic subjects with AML or MDS receiving posaconazole assessed as maximum MIC by broth microdilution method). Conditions: not given.
Type: functional
`OC(Cn1cncn1)(Cn1cncn1)c1ccc(F)cc1F` [FLUCONAZOLE] was tested, and the MIC was 64 µg/mL.

What follows are molecules tested on Nakaseomyces glabratus (assay: Antifungal activity against Candida glabrata isolated from neutropenic subject 1491 with AML or MDS pharynx receiving antifungal drug after 23 days prophylaxis by broth microdilution method). Conditions: 552 h.
Type: functional
`OC(Cn1cncn1)(Cn1cncn1)c1ccc(F)cc1F` [FLUCONAZOLE] gave an MIC of over 64 µg/mL.

What follows are molecules tested on Nakaseomyces glabratus (assay: Antifungal activity against 88 days cultured Candida glabrata isolated from HSCT recipient with acute or chronic GVHD mouth receiving antifungal therapy for 75 days after 33 days of prophylaxis by broth microdilution method). Conditions: not given.
Type: functional
`OC(Cn1cncn1)(Cn1cncn1)c1ccc(F)cc1F` [FLUCONAZOLE] gave an MIC of over 64 µg/mL.

What follows are molecules tested on Candida tropicalis (assay: Antifungal activity against -3 days cultured Candida tropicalis isolated from neutropenic subject with AML or MDS stool receiving antifungal therapy for 45 days after 24 days of prophylaxis by broth microdilution method). Conditions: not given.
Type: functional
With `OC(Cn1cncn1)(Cn1cncn1)c1ccc(F)cc1F` [FLUCONAZOLE] the MIC was 0.25 µg/mL (≈ 0.816 µM).

Each molecule was assayed on Candida albicans (assay: Antifungal activity against Candida albicans isolated from neutropenic subjects with AML or MDS receiving fluconazole assessed as maximum MIC by broth microdilution method). Conditions: not given.
Type: functional
In the case of `OC(Cn1cncn1)(Cn1cncn1)c1ccc(F)cc1F` [FLUCONAZOLE], the MIC was 64 µg/mL.

Each molecule was assayed on Nakaseomyces glabratus (assay: Antifungal activity against Candida glabrata isolated from HSCT recipients with acute or chronic GVHD prior to initiation of fluconazole therapy by broth microdilution method). Conditions: not given.
Type: functional
`OC(Cn1cncn1)(Cn1cncn1)c1ccc(F)cc1F` [FLUCONAZOLE] showed an MIC50 of 16 µg/mL (≈ 52.2 µM) and an MIC90 of 64 µg/mL (≈ 209 µM).

The molecules below were run on Pichia kudriavzevii (assay: Antifungal activity against 19 days cultured Candida krusei isolated from invasive fungal infected subject blood receiving antifungal therapy for 19 days after 6 days of prophylaxis by broth microdilution method). Conditions: not given.
Type: functional
`OC(Cn1cncn1)(Cn1cncn1)c1ccc(F)cc1F` [FLUCONAZOLE] showed an MIC of 32 µg/mL (≈ 104 µM).

What follows are molecules tested on Nakaseomyces glabratus (assay: Antifungal activity against 29 days cultured Candida glabrata isolated from neutropenic subject with AML or MDS stool after 48 days of prophylaxis by broth microdilution method). Conditions: not given.
Type: functional
`OC(Cn1cncn1)(Cn1cncn1)c1ccc(F)cc1F` [FLUCONAZOLE] gave an MIC of 8 µg/mL (≈ 26.1 µM).

The molecules below were run on Nakaseomyces glabratus (assay: Antifungal activity against 14 days cultured Candida glabrata isolated from HSCT recipient with acute or chronic GVHD mouth after 17 days of prophylaxis by broth microdilution method). Conditions: not given.
Type: functional
For `OC(Cn1cncn1)(Cn1cncn1)c1ccc(F)cc1F` [FLUCONAZOLE], the MIC was over 64 µg/mL.

These molecules were tested on Nakaseomyces glabratus (assay: Antifungal activity against Candida glabrata isolated from neutropenic subjects with AML or MDS prior to initiation of posaconazole therapy assessed as maximum MIC by broth microdilution method). Conditions: not given.
Type: functional
With `OC(Cn1cncn1)(Cn1cncn1)c1ccc(F)cc1F` [FLUCONAZOLE] the MIC was 32 µg/mL.

These molecules were tested on Candida albicans (assay: Antifungal activity against 1 day cultured Candida albicans isolated from HSCT recipient with acute or chronic GVHD mouth after 2 days of prophylaxis by broth microdilution method). Conditions: not given.
Type: functional
`OC(Cn1cncn1)(Cn1cncn1)c1ccc(F)cc1F` [FLUCONAZOLE] showed an MIC of under 0.12 µg/mL.

These molecules were tested on Candida albicans (assay: Antifungal activity against Candida albicans isolated from HSCT recipients with acute or chronic GVHD prior to initiation of fluconazole therapy by broth microdilution method). Conditions: not given.
Type: functional
Work on `OC(Cn1cncn1)(Cn1cncn1)c1ccc(F)cc1F` [FLUCONAZOLE] yielded an MIC50 of 0.25 µg/mL (≈ 0.816 µM) and an MIC90 of 1 µg/mL (≈ 3.27 µM).

These molecules were tested on Candida albicans (assay: Antifungal activity against Candida albicans isolated from HSCT recipient 262 with acute or chronic GVHD mouth receiving antifungal drug after 115 days prophylaxis by broth microdilution method). Conditions: not given.
Type: functional
`OC(Cn1cncn1)(Cn1cncn1)c1ccc(F)cc1F` [FLUCONAZOLE] gave an MIC of 2 µg/mL (≈ 6.53 µM).

These molecules were tested on Pichia kudriavzevii (assay: Antifungal activity against 13 days cultured Candida krusei isolated from invasive fungal infected subject blood after 12 days of prophylaxis by broth microdilution method). Conditions: not given.
Type: functional
In the case of `OC(Cn1cncn1)(Cn1cncn1)c1ccc(F)cc1F` [FLUCONAZOLE], the MIC was over 64 µg/mL.

Each molecule was assayed on Candida albicans (assay: Antifungal activity against Candida albicans isolated from HSCT recipient 031 with acute or chronic GVHD mouth after 109 days prophylaxis by broth microdilution method). Conditions: not given.
Type: functional
`OC(Cn1cncn1)(Cn1cncn1)c1ccc(F)cc1F` [FLUCONAZOLE] showed an MIC of 16 µg/mL (≈ 52.2 µM).

Each molecule was assayed on Nakaseomyces glabratus (assay: Antifungal activity against Candida glabrata isolated from HSCT recipient 807 with acute or chronic GVHD mouth receiving antifungal drug after 114 days prophylaxis by broth microdilution method). Conditions: not given.
Type: functional
Molecule `OC(Cn1cncn1)(Cn1cncn1)c1ccc(F)cc1F` [FLUCONAZOLE] has an MIC of 128 µg/mL (≈ 418 µM).

The molecules below were run on Candida albicans (assay: Antifungal activity against Candida albicans isolated from neutropenic subjects with AML or MDS receiving fluconazole by broth microdilution method). Conditions: not given.
Type: functional
Molecule `OC(Cn1cncn1)(Cn1cncn1)c1ccc(F)cc1F` [FLUCONAZOLE] has an MIC50 of 0.25 µg/mL (≈ 0.816 µM) and an MIC90 of 0.5 µg/mL (≈ 1.63 µM).

Each molecule was assayed on Nakaseomyces glabratus (assay: Antifungal activity against 10 days cultured Candida glabrata isolated from neutropenic subject with AML or MDS stool receiving antifungal therapy for 37 days after 9 days of prophylaxis by broth microdilution method). Conditions: not given.
Type: functional
Molecule `OC(Cn1cncn1)(Cn1cncn1)c1ccc(F)cc1F` [FLUCONAZOLE] has an MIC of 8 µg/mL (≈ 26.1 µM).

What follows are molecules tested on Candida albicans (assay: Antifungal activity against Candida albicans isolated from HSCT recipients with acute or chronic GVHD receiving fluconazole by broth microdilution method). Conditions: not given.
Type: functional
Work on `OC(Cn1cncn1)(Cn1cncn1)c1ccc(F)cc1F` [FLUCONAZOLE] yielded an MIC50 of 1 µg/mL (≈ 3.27 µM) and an MIC90 of 64 µg/mL (≈ 209 µM).

What follows are molecules tested on Nakaseomyces glabratus (assay: Antifungal activity against 7 days cultured Candida glabrata isolated from neutropenic subject with AML or MDS stool receiving antifungal therapy for 37 days after 9 days of prophylaxis by broth microdilution method). Conditions: not given.
Type: functional
Molecule `OC(Cn1cncn1)(Cn1cncn1)c1ccc(F)cc1F` [FLUCONAZOLE] has an MIC of 8 µg/mL (≈ 26.1 µM).

These molecules were tested on Nakaseomyces glabratus (assay: Antifungal activity against 42 days cultured Candida glabrata isolated from neutropenic subject with AML or MDS stool after 48 days of prophylaxis by broth microdilution method). Conditions: not given.
Type: functional
Work on `OC(Cn1cncn1)(Cn1cncn1)c1ccc(F)cc1F` [FLUCONAZOLE] yielded an MIC of 8 µg/mL (≈ 26.1 µM).

These molecules were tested on Pichia kudriavzevii (assay: Antifungal activity against 6 days cultured Candida krusei isolated from neutropenic subject with AML or MDS pharynx receiving antifungal therapy for 19 days after 6 days of prophylaxis by broth microdilution method). Conditions: not given.
Type: functional
In the case of `OC(Cn1cncn1)(Cn1cncn1)c1ccc(F)cc1F` [FLUCONAZOLE], the MIC was 32 µg/mL (≈ 104 µM).

What follows are molecules tested on Candida albicans (assay: Antifungal activity against Candida albicans isolated from HSCT recipient 042 with acute or chronic GVHD mouth receiving antifungal drug after 112 days prophylaxis by broth microdilution method). Conditions: not given.
Type: functional
`OC(Cn1cncn1)(Cn1cncn1)c1ccc(F)cc1F` [FLUCONAZOLE] gave an MIC of 1 µg/mL (≈ 3.27 µM).

Reference: ChEMBL document CHEMBL1687752, “Impact of antifungal prophylaxis on colonization and azole susceptibility of Candida species” (2009)
